Experimental data as given in patent US11326131B2, “Cleaning composition” (AMITY LIMITED, priority 2008, dated 2022).

System: polio virus
Format: cell-based
Conditions: tested on its own

CCCCCCCCCCCCN(CCCN)CCCN [dodecyl dipropylene triamine, Dodecyl dipropylene triamine]
effect against the polio virus: no effect
